Measurements published in PubChem BioAssay (NCI).
Several values for one entry are separate records, joined by “and”; a condition that tells them apart may be missing. Identical values can stand only once.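 Briefly, cells in 96-well plates were exposed to five compound concentrations for 48 h, and endpoints were estimated by linear interpolation. The concentration for 50% growth inhibition is given as GI50. TGI: total growth inhibition.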

Experiments:
Assay in all cases: NCI-60 cell line screen, 48 h
TK-10 renal = system: TK-10 renal
MDA-MB-231 breast = system: MDA-MB-231 breast
MCF7 breast = system: MCF7 breast
IGROV1 ovarian = system: IGROV1 ovarian
SK-MEL-5 melanoma = system: SK-MEL-5 melanoma
786-0 renal = system: 786-0 renal
EKVX NSCLC = system: EKVX NSCLC
U251 CNS = system: U251 CNS
MDA-MB-435 = system: MDA-MB-435
A498 renal = system: A498 renal

Structure (SMILES)	GI50 (TK-10 renal) [µM]	TGI (TK-10 renal) [µM]	GI50 (MDA-MB-231 breast)	TGI (MDA-MB-231 breast) [µM]	GI50 (MCF7 breast) [µM]	TGI (MCF7 breast) [µM]	GI50 (IGROV1 ovarian)	TGI (IGROV1 ovarian) [µM]	GI50 (SK-MEL-5 melanoma) [µM]	TGI (SK-MEL-5 melanoma) [µM]	GI50 (786-0 renal) [µM]	TGI (786-0 renal) [µM]	GI50 (EKVX NSCLC) [µM]	TGI (EKVX NSCLC) [µM]	GI50 (U251 CNS)	TGI (U251 CNS) [µM]	GI50 (MDA-MB-435)	TGI (MDA-MB-435)	TGI (A498 renal) [µM]	GI50 (A498 renal) [µM]
COc1ccc2nc(-c3ccccc3)cc(Nc3ccc(C(C)=O)cc3)c2c1	5.24	17.2	0.0369 µM	2.13	2.47	13.9	15.8 µM	> 100	1.6	3.86	1.31	3.54	5.98	20.5	2.46 µM	10.8				
CN(NC(=O)CC(=O)NN(C)C(=S)c1ccccc1)C(=S)c1ccccc1		> 100	> 100 µM	> 100	< 0.01	> 100		> 100	49.1	> 100	56.3	> 100		> 100	49.8 µM	> 100	> 84.4 µM	> 100 µM		
Clc1ccc(-n2nnc(C3=NCCCN3)c2-c2ccccc2)cc1		> 100						> 100		> 100		> 100		> 100		> 100			> 100	
CC(=O)C1CC2(c3ccc(C)cc3)C(c3ccc(C)cc3)=C(c3ccc(C)cc3)C1(c1ccc(C)cc1)S2=O (centres undefined)	> 100	> 100	> 100 µM	> 100	> 100	> 100	70.2 µM	> 100	> 100	> 100	> 100	> 100	> 100	> 100	> 100 µM	> 100	> 100 µM	> 100 µM		
C=CC[C@H]1C[C@@]2(C)OC[C@H](C(C)C)N2C1=O		> 100						> 100		> 100		> 100		> 100		> 100			> 100	
C[C@@H]1O[C@@H](O[C@@H]2[C@@H](O)[C@H](OCCc3ccc(O)c(O)c3)O[C@H](COC(=O)/C=C/c3ccc(O)c(O)c3)[C@H]2O)[C@H](O)[C@H](O)[C@H]1O	> 100	> 100	> 100 µM	> 100			> 100 µM	> 100	> 100	> 100	58.4	> 100	36.3	> 100	49.2 µM	> 100	19.9 µM	40.1 µM		
N#CC1=C(N)NC(=S)NC12Nc1ccccc1O2 (centres undefined)	42.5	> 100	19.3 µM	76.7	27.2	> 100	3.17 µM	24.9	27.1	85.4	30.1	> 100	62.3	> 100	28.2 µM	> 100	16.8 µM	> 100 µM		
S=c1[nH]c(=S)c2sc(=S)n(-c3ccccc3)c2[nH]1		> 100						> 100		> 100		> 100		> 100		> 100			> 100	
COc1ccc(/C=C\c2cc(OC)c(OC)c(OC)c2)cc1OC(=O)C(N)CCC(=O)O (centres undefined)		> 100	0.00211 µM and 0.00795 µM		0.00503	> 100	0.00415 µM and 0.000539 µM and 0.000824 µM	> 100			0.00706			> 100	0.000543 µM and 0.000132 µM		0.000169 µM and 4.9e-05 µM	0.000799 µM and 0.000118 µM		
CC(=O)[CH-]C(=O)c1ccccc1.CC(=O)[CH-]C(=O)c1ccccc1.CC(=O)[CH-]C(=O)c1ccccc1.[Tl+3]	> 59.2	> 100					24.5 µM	> 68.6	24.4	> 66.8	49.2	> 100	31.8	> 100	42.6 µM	> 100			> 100	> 100
Cc1nc2c(=O)[nH]c(=O)n(C)c2[nH]c1=O		> 100						> 100		> 100		> 100		> 100		> 100			> 100	
O=C1CCCCCCCC/C=C/CCC(c2ccco2)O1 (centres undefined)	23.5	> 100	40 µM	97.6	15.8	> 100	51.2 µM	> 100	44	> 100	45.9	> 100	> 100	> 100	31.4 µM	> 100	99.6 µM	> 100 µM		
